In US6121241A, “Anticoagulant peptide aldehyde derivatives” (Gyogyszerkutato Intezet Kft., priority 1996, dated 2000):
Read-outs that look alike come from different tables or passages of the source.

Columns and labels:
urokinase (UK) = urokinase (UK) (Homo sapiens, UniProt P00749); assay: Fibrin-plate method, plasmin formation induced by urokinase; assay type: biochemical; settings: for IC50: fibrin-plate method, hydrolyzed area reduced by 50%
Description: The inhibitory effect of the new compounds of the invention on plasmin (PL) as well as on plasmin formation induced by tissue plasminagen activator (tPA) and urokinase (UK) was studied by the […] [D. Bagdy et al.; Thromb. Haemost. 67, 325 (1992)]. Compounds C1 and C3 served as controls. […] V. Jackson et al., J. Cardiovasc. Pharmacol. 21, 587 (1993)].
^a IC50 = peptide concentration (mM) where the hydrolyzed area o
the fibrin plate is reduced by 50% compared to the control

[1] = system: citrate plasma coagulation (APTT); assay: Activated partial thromboplastin time (APTT) plasma clotting test; assay type: biochemical
Method: (§1) Anticoagutant activity (i.e. inhibition of the proteolytic reactions in the process) is measured by anticoagulant tests, e.g. by the thrombin time (TT), activated partial thromboplastin time (APTT) and prothrombin time (PT) tests [E. J. W. Bovie et al; Mayo Clinic Laboratory Manual of Hemostasis; W. B. Sanuders Co., Philadelphia (1971)]. Plasma, inhibited in spontaneous coagulation, e.g. citrate-plasma, is made to coagulate and the required coagulation time is measured. Upon the action of anticoagulants the coagulation time is prolonged proportionally to the inhibition of the reaction(s) in the process. The anticoagulant effect can be characterized by the substance concentration required to double the coagulation time compared to the control (IC50). The effect of anticoagulants on individual coagulant proteases is measured by the amidolytic method [R. Lottenberg et al., Methods in Enzymol. 80, 341 (1981); G. Cleason, Blood Coagulation and Fibrinolysis 5, 411 (1994)]. The isolated active factor (e.g. thrombin, fXa) and its chromogen or fluorogen peptide-amide substrate are reacted in the presence or absence of the inhibitor, resp. The enzyme inhibiting action is characterized by the inhibitory constant (IC50) measured during amidolysis.
(§2) In the TT test coagulation is initiated by the thrombin added to the citrate plasma. In the system 22 pmol/mL of thrombin is functioning and in the presence of plasma components its inhibition can be measured on the fibrinogen (one of the natural substrates of thrombin) present In the APTT and PT tests the full coagulation process is made to proceed. Depending on the activator fX is activated by the extrinsic or intrinsic pathway. The generated fXa activates prothrombin to thrombin which, in turn, triggers plasma coagulation. In the test the coagulation time is prolonged if the enzymes or one of them is inhibited by the inhibitor. In the APTT and PT tests at most 40 pmole/ml Xa is generated (this is the full amount of factor X present in both systems) while 150 pmole/ml (APTT) and 350 pmole/ml (PT) are generated from thrombin [B Kaiser et al., Thromb. Res. 65, 157 (1992)].
(§3) The in vitro anticoagulant effect of the compounds of general formula (I) was measured by the prothrombin time (PT), activated partial thromboplastin time (APTT) and thrombin time (TT) tests [D. Bagdy et at., Thromb. Haemost. 67, 325 (1992)]. The Xa-factor-inhibiting effect of the compounds was also determined by using the Bz-Ile-Glu-Gly-Arg-pNA chromogen substrate (see method M6).

[2] = system: citrate plasma coagulation (PT); assay: Prothrombin time (PT) plasma clotting test; assay type: biochemical
Method: as §1, §2, §3

human factor Xa = biological target: T1, human factor Xa (Homo sapiens, UniProt P00742); assay: Inhibition of the amidolytic effect of factor Xa in solution on Bz-Ile-Glu-Gly-Arg-pNA (method M6); assay type: biochemical; settings: Table 2; Bz-Ile-Glu-Gly-Arg-pNA, isolated human factor Xa; read-out: B: IC50 (factor Xa inhibiting effect)
T1 construct: purchased SIGMA
T1 sequence (P00742 235-488 limits assumed): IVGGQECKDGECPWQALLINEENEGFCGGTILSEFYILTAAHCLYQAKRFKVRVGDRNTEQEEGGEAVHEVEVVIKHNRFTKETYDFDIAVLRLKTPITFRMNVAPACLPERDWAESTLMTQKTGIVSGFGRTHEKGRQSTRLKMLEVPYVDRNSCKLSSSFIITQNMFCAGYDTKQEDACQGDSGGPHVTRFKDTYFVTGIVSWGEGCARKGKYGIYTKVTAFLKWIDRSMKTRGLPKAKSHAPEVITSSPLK
T1 sequence (P00742 41-179 partner limits assumed): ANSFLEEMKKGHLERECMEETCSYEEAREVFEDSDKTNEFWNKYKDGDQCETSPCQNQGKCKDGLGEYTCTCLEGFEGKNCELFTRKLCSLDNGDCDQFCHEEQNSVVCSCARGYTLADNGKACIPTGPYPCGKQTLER
Method: as §1, §3
Assay of the Inhibition of Factor Xa in Solution on a 96-well Microtiter Plate
a) 1.3 U/mL factor Xa (human, SIGMA), 0.1-1.0-10 and 100 μg/mL solutions in phosphate buffer (0.1 M sodium phosphate and 0.05 M sodium chloride, pH 7.4) of the peptide inhibitors and […] solutions of the substrate Bz-Ile-Glu-Gly-Arg-pNA in distilled water are used.
b) Three reaction mixtures are prepared from the control and each peptide solution. 30 μL each of the peptide and the buffer, serving as control, 30 μL factor Xa, 90 μL butter and 150 μL substrate are placed in the wells of the plate, then after 10 minutes the extinction values are read at 405 nm The procedure is continued as described in Method M2, point c).

[3] = system: whole blood clotting time (WBCT); assay: Ex vivo whole blood clotting time (WBCT) in rabbits after p.o. dosing; parameters: species or system New Zealand white rabbits; settings: p.o. 5 mg/kg
Method: (§4) The anticoagulant and platelet aggregation inhibiting effect of the compounds of general formula (I) was studied In New Zealand white rabbits ex vivo according to D. Bagdy et al [Thromb. Haemost 67. 357 (1992). The compounds were dissolved in buffered isotonic saline solution and administered i.v. (0,04-5.0 mg/kg) or by infusion (0.25-5.0 mg/kg/h) or subcutaneously (0.5-6.0 mg/kg) or p.o. (2.5-20 mg/kg). The effect of the compounds was detectable already within 30 minutes following p.o. administration, peak values were attained after 60-180 minutes and the therapeutic level was maintained dose-dependently for 3→6 hours.
(§5) The in vivo effect of D-cHga Pro-Arg-H (1) is presented in detail in Tables 5 and 6. The corresponding values of C1 are listed as controls. The compound was administered p.o. in doses of 5 mg/kg. The blood samples drawn from the caudal vein in every 30-60 minutes were analyzed. The whole blood clotting time (WBCT) and the inhibition of thrombin-induced blood platelet aggregation (PAI) were determined. The activated partial thromboplastin time (APTT) and the thrombin time (TT) in the citrate plasma obtained from the blood sample were also measured. The APTT and TT values are compiled in Table 5 and the WBCT and PAI values in Table 6.

thrombin time (TT) = assay: Ex vivo TT in citrate plasma of rabbits after p.o. dosing; parameters: species or system New Zealand white rabbits; settings: p.o. 5 mg/kg
Method: as §4, §5

thrombin = biological target: T2, thrombin (Homo sapiens, UniProt P00734); assay: Thrombin time (TT) plasma clotting test; assay type: biochemical
T2 construct: The isolated active factor (e.g. thrombin, fXa) and its chromogen or fluorogen peptide-amide substrate are reacted
Method: as §1, §2, §3

[4] = Table 2, concentration doubling clotting time, read-out: A: IC50, PT
[5] = Table 2, concentration doubling clotting time, read-out: A: IC50, TT

| Structure (SMILES) | IC50 (urokinase (UK)) [nM] | IC50 [2, 4] [nM] | IC50 (human factor Xa) [nM] | WBCT relative clotting time ([3]; 0 min) | WBCT relative clotting time ([3]; 30 min) | WBCT relative clotting time ([3]; 45 min) | WBCT relative clotting time ([3]; 60 min) | WBCT relative clotting time ([3]; 90 min) | WBCT relative clotting time ([3]; 120 min) | WBCT relative clotting time ([3]; 180 min) | WBCT relative clotting time ([3]; 240 min) | TT relative clotting time (thrombin time (TT); 0 min) | TT relative clotting time (thrombin time (TT); 30 min) | TT relative clotting time (thrombin time (TT); 45 min) | TT relative clotting time (thrombin time (TT); 60 min) | TT relative clotting time (thrombin time (TT); 90 min) | TT relative clotting time (thrombin time (TT); 120 min) | TT relative clotting time (thrombin time (TT); 180 min) | TT relative clotting time (thrombin time (TT); 240 min) | IC50 (thrombin; [5]) [nM] | further results |
| --- | --- | --- | --- | --- | --- | --- | --- | --- | --- | --- | --- | --- | --- | --- | --- | --- | --- | --- | --- | --- | --- |
| N=C(N)NCCC[C@@H](C=O)NC(=O)[C@H]1CCCN1C(=O)C(O)C1CCCCCC1.N=C(N)NCCC[C@@H](C=O)NC(=O)[C@H]1CCCN1C(=O)C(O)C1CCCCCC1.O=S(=O)(O)O (stereo partly drawn) [Compound 1, D-2-Cycloheptyl-2-hydroxyacetyl-L-prolyl-L-arginine aldehyde hemisulfate] | 120000 | 1200 | 63 | 1.0 | 1.80 ± 0.36 | 2.03 ± 0.35 | 1.98 ± 0.30 | 1.78 ± 0.26 | 1.52 ± 0.13 | 1.29 ± 0.07 | 1.13 ± 0.04 | 1.0 | 10.57 ± 5.98 | 10.89 ± 5.89 | 11.67 ± 5.69 | 14.00 ± 6.48 | 10.60 ± 4.22 | 2.22 ± 0.71 | 1.23 ± 0.07 | 110 | B: relative efficacy, UK (urokinase (UK)): 0.7; times lower activity than compound C3, third enzyme (UK) (urokinase (UK); versus C3 of Table 4): 39; IC50 ([1]; Table 2, concentration doubling clotting time, read-out: A: IC50, APTT): 370 nM; TT relative clotting time (thrombin time (TT); 300 min): 1.13 ± 0.05 |
| CN[C@H](Cc1ccccc1)C(=O)N1CCC[C@H]1C(=O)N[C@H](C=O)CCCNC(=N)N [Compound C1, D-MePhe-Pro-Arg-H] | 82000 | 2920 | 9130 | 1.0 | 1.07 ± 0.13 | 1.26 ± 0.07 | 1.55 ± 0.17 | 1.61 ± 0.34 | 1.45 ± 0.21 | 1.44 ± 0.08 | 1.22 ± 0.08 | 1.0 | 1.52 ± 0.17 | 2.50 ± 0.44 | 4.75 ± 1.38 | 10.50 ± 5.49 | 5.51 ± 3.59 | 2.05 ± 0.38 | 1.81 ± 0.39 | 90 | B: relative efficacy, UK (urokinase (UK); related to the activity of C1 (1/IC50 = 1)): 1.0; IC50 ([1]; read-out: concentration doubling the clotting time in the APTT test): 622 nM; IC50 ([2]; read-out: concentration doubling the clotting time in the PT test): 2920 nM; IC50 (thrombin; Table 1, concentration doubling clotting time, read-out: B: IC50, TT): 90 nM; IC50 (thrombin; read-out: concentration doubling the clotting time in the TT test): 87 nM |
